Columns and labels:
[1] = tested on: murine mixed primary glia; assay: basal apoE production from murine mixed primary glia cultures; assay type: cell-based; conditions: no β-amyloid treatment, FIG. 5
Description: Primary mixed glial cultures, purified primary astrocyte, and purified primary microglial cultures prepared from rodent or human brain tissue (generally fetal) were used in the test assay. A variety of preparation methods can be used to isolate primary glial cultures, both mixed and purified for astroglial or microglial cell types. See e.g. McCarthy and de Vellis, J. Cell Biol. 85:890-902 (1980); Levinson & McCarthy in Culturing Nerve Cells, MIT Press, Cambridge, Mass. at 309-336 (1991); Hu et al. J. Biol. Chem. 271:2543-2547 (1996); Stone et al. Exptl. Neurol. 143:313-318 (1997); Barger et al. Mol. Brain Res. 40:116-126 (1996); and Manthorpe et al. J. Neurocytol. 8:605-621 (1979). Also, primary glial cultures can be prepared which include neurons, such as in the procedure described by Messmer-Joudrier et al. Eur. J. Neurosci. 8: 2652-2661 (1996). For primary cell cultures, different brain regions were used to isolate the cells. Hippocampal, cortical, cerebellar or brain stem cultures were prepared. Primary and continuous cell lines were plated into wells of a multi-well plate at a subconfluent density for the assay. Typically, the cultures were used within 1-2 days of initial plating. […]

[2] = tested on: organotypic hippocampal cultures; assay: apoE release from organotypic hippocampal brain slice cultures; assay type: cell-based, rat; conditions: for inhibition of apoE: organotypic hippocampal brain slice cultures, FIG. 7
Description: Eight day old neonatal rat or mouse pups were quickly decapitated with scissors, serrated on one edge, in an aseptic fume hood. The brain was rapidly removed to buffered dissection media containing 100 ml MEM, 1 ml penicillin/streptomycin, 1 ml Tris 100×stock (10 mm final, pH 7.2), sterile filtered and chilled. The hippocampi and cortices were isolated under a dissecting microscope and transported in dissection media to a sterile fume hood. Tissue was positioned on the stage of a MacIllwain tissue chopper with a sterile paint brush, and 400 μm sections were made. Approximately 30 sections per animal were be obtained. Sections were separated by vigorously swirling the petri dish containing the sections in culture media, containing 25% horse serum, 25% Hank's media, 50% minimal essential media, 1 ml penicillin/streptomycin, 0.5 ml L-glutamine. Sections were inspected with a dissecting microscope and damaged tissue removed. The selected sections were manipulated in drops of dissecting media with Pasteur pipettes which had been scored and broken, then fire polished, to produce appropriate diameter bores, and placed on Millipore culture plate inserts set into 35 mm plate containing 1 ml culture media or 6 well plates containing 1.2 ml culture media. Plates containing inserts and media had been pre-equilibrated to 37° C. and 5% CO2. Three to six slices were positioned on each insert. Excess media was drawn off the slice, and the culture placed in a 37° C., 5% CO2 incubator. Cultures were maintained for up to 3 months. Media was changed at 24 hours, and at 3-4 day intervals.
Media was pre-equilibrated in plates at 37° C., 5% CO2. Culture inserts holding 3 rat organotypic brain slices obtained from 8 day old animals and maintained in culture for 2 weeks were transferred to the media containing test solution. […]
After treatment, medium is harvested and assayed for apoE levels using immunoassays such as ELISA or Western blot. Cell lysates prepared from the treated brain slices and analyzed for cell-associated apoE using the same assays.

[3] = tested on: BV-2 microglial cells; assay: basal apoE production from BV-2 microglial cell cultures; assay type: cell-based, murine; conditions: no β-amyloid treatment, FIG. 5
Description: Microglial cell lines were used to evaluate changes in apoE expression. Microglial cell lines for use in the method of the invention include murine lines, e.g. BV-2 cell line (Blasi et al. J. Neuroimmunol. 27:229-237 (1990) and the N9 cell line (Corradin et al. Glia 7:255-262 (1993) or human lines such as those described in Janabi et al. Neurosci. Lett. 195:105-108 (1995). The microglial cell lines used were obtained from the investigators who isolated the lines. Astroglial continuous cell lines were also utilized in the assay, e.g. the human U373-MG line or the rodent lines C6 and DI TNC1. All of these astrocytic lines were obtained, from the American Tissue Culture Collection cell repository (Rockville, Md.).
To screen for inhibitors of apoE secretion or production using cultured brain cells, wells containing cultures were incubated in serum-free medium or medium containing reduced serum concentrations (1 to 0.1%) for various periods of time anywhere from 1-72 hours in the presence of the test compound. For some inhibitors, such as HMG CoA reductase and farnesylation inhibitors, pre-treatment of the cultures with the compound for 4-16 hours in serum-containing growth medium was used to maximize the effectiveness of the assay. Cultures were treated with β-amyloid to stimulate apoE levels in the test paradigm. […]

| SMILES | basal apoE levels [1] | apoE release ([2]; organotypic hippocampal cultures, 24, 48, 72 hours after treatment, FIG. 6) | basal apoE levels [3] | inhibition of apoE [2] | inhibition of apoE ([2]; listed as NaSalicylate) |
| --- | --- | --- | --- | --- | --- |
| COC(=O)[C@H](CC(C)C)NC(=O)c1ccc(NC[C@@H](N)CS)cc1-c1ccccc1 [GGTI-286] | reduced basal apoE levels | inhibitory effect on apoE release | reduced basal apoE levels | – | – |
| O=C([O-])c1ccccc1O.[Na+] [sodium salicylate] | – | – | – | time- and dose-dependent inhibition of apoE | dose dependent inhibition of apoE |

Source: US6428950B1, “Assay to identify compounds that alter apolipoprotein E expression” (Scios Inc., priority 1998, dated 2002)
